Test results from ChEMBL document CHEMBL3882388, “Pharmaceutical Compositions Comprising Beta-Lactam Antibiotic, Sulbactam and Beta-Lactamase Inhibitor” (2014).

Key:
[1] = biological target: Beta-lactamase (Acinetobacter baumannii) (UniProt Q8RLA6); assay: Inhibition of beta-lactamase in extended-spectrum b-lactamase producing Acinetobacter baumannii NCTC 13305 assessed as potentiation of cefepime-induced antibacterial activity by measuring cefepime MIC at 4 to 8 ug/ml incubated for 16 to 20 hrs by CLSI method
[2] = biological target: Beta-lactamase (Acinetobacter baumannii) (UniProt Q8RLA6); assay: Inhibition of beta-lactamase in extended-spectrum b-lactamase producing Acinetobacter baumannii NCTC 13304 assessed as potentiation of cefepime-induced antibacterial activity by measuring cefepime MIC at 4 to 8 ug/ml incubated for 16 to 20 hrs by CLSI method
[3] = biological target: Beta-lactamase (Acinetobacter baumannii) (UniProt Q8RLA6); assay: Inhibition of beta-lactamase in extended-spectrum b-lactamase producing Acinetobacter baumannii S-8 assessed as potentiation of cefepime-induced antibacterial activity by measuring cefepime MIC at 4 to 8 ug/ml incubated for 16 to 20 hrs by CLSI method
[4] = biological target: Beta-lactamase (Acinetobacter baumannii) (UniProt Q8RLA6); assay: Inhibition of beta-lactamase in extended-spectrum b-lactamase producing Acinetobacter baumannii NCTC 13301 assessed as potentiation of cefepime-induced antibacterial activity by measuring cefepime MIC at 4 to 8 ug/ml incubated for 16 to 20 hrs by CLSI method
[5] = biological target: Beta-lactamase (Acinetobacter baumannii) (UniProt Q8RLA6); assay: Inhibition of beta-lactamase in extended-spectrum b-lactamase producing Acinetobacter baumannii S-4 assessed as potentiation of cefpirome-induced antibacterial activity by measuring cefpirome MIC at 4 to 8 ug/ml incubated for 16 to 20 hrs by CLSI method
[6] = biological target: Beta-lactamase (Acinetobacter baumannii) (UniProt Q8RLA6); assay: Inhibition of beta-lactamase in extended-spectrum b-lactamase producing Acinetobacter baumannii NCTC 13304 assessed as potentiation of cefpirome-induced antibacterial activity by measuring cefpirome MIC at 4 to 8 ug/ml incubated for 16 to 20 hrs by CLSI method
[7] = biological target: Beta-lactamase (Acinetobacter baumannii) (UniProt Q8RLA6); assay: Inhibition of beta-lactamase in extended-spectrum b-lactamase producing Acinetobacter baumannii S-10 assessed as potentiation of cefpirome-induced antibacterial activity by measuring cefpirome MIC at 4 to 8 ug/ml incubated for 16 to 20 hrs by CLSI method
[8] = biological target: Beta-lactamase (Acinetobacter baumannii) (UniProt Q8RLA6); assay: Inhibition of beta-lactamase in extended-spectrum b-lactamase producing Acinetobacter baumannii S-15 assessed as potentiation of cefpirome-induced antibacterial activity by measuring cefpirome MIC at 4 to 8 ug/ml incubated for 16 to 20 hrs by CLSI method
[9] = biological target: Beta-lactamase (Acinetobacter baumannii) (UniProt Q8RLA6); assay: Inhibition of beta-lactamase in extended-spectrum b-lactamase producing Acinetobacter baumannii S-3 assessed as potentiation of cefepime-induced antibacterial activity by measuring cefepime MIC at 4 to 8 ug/ml incubated for 16 to 20 hrs by CLSI method
[10] = biological target: Beta-lactamase (Acinetobacter baumannii) (UniProt Q8RLA6); assay: Inhibition of beta-lactamase in extended-spectrum b-lactamase producing Acinetobacter baumannii S-4 assessed as potentiation of cefepime-induced antibacterial activity by measuring cefepime MIC at 4 to 8 ug/ml incubated for 16 to 20 hrs by CLSI method
[11] = biological target: Beta-lactamase (Acinetobacter baumannii) (UniProt Q8RLA6); assay: Inhibition of beta-lactamase in extended-spectrum b-lactamase producing Acinetobacter baumannii S-15 assessed as potentiation of cefepime-induced antibacterial activity by measuring cefepime MIC at 4 to 8 ug/ml incubated for 16 to 20 hrs by CLSI method
[12] = biological target: Beta-lactamase (Acinetobacter baumannii) (UniProt Q8RLA6); assay: Inhibition of beta-lactamase in extended-spectrum b-lactamase producing Acinetobacter baumannii S-3 assessed as potentiation of cefpirome-induced antibacterial activity by measuring cefpirome MIC at 4 to 8 ug/ml incubated for 16 to 20 hrs by CLSI method
[13] = biological target: Beta-lactamase (Acinetobacter baumannii) (UniProt Q8RLA6); assay: Inhibition of beta-lactamase in extended-spectrum b-lactamase producing Acinetobacter baumannii NCTC 13301 assessed as potentiation of cefpirome-induced antibacterial activity by measuring cefpirome MIC at 4 to 8 ug/ml incubated for 16 to 20 hrs by CLSI method
[14] = biological target: Beta-lactamase (Acinetobacter baumannii) (UniProt Q8RLA6); assay: Inhibition of beta-lactamase in extended-spectrum b-lactamase producing Acinetobacter baumannii NCTC 13305 assessed as potentiation of cefpirome-induced antibacterial activity by measuring cefpirome MIC at 4 to 8 ug/ml incubated for 16 to 20 hrs by CLSI method
[15] = biological target: Beta-lactamase (Acinetobacter baumannii) (UniProt Q8RLA6); assay: Inhibition of beta-lactamase in extended-spectrum b-lactamase producing Acinetobacter baumannii S-10 assessed as potentiation of cefepime-induced antibacterial activity by measuring cefepime MIC at 4 to 8 ug/ml incubated for 16 to 20 hrs by CLSI method
[16] = biological target: Beta-lactamase (Acinetobacter baumannii) (UniProt Q8RLA6); assay: Inhibition of beta-lactamase in extended-spectrum b-lactamase producing Acinetobacter baumannii S-8 assessed as potentiation of cefpirome-induced antibacterial activity by measuring cefpirome MIC at 4 to 8 ug/ml incubated for 16 to 20 hrs by CLSI method

Beta-lactamase (Acinetobacter baumannii), sequence (Q8RLA6 as listed by the source): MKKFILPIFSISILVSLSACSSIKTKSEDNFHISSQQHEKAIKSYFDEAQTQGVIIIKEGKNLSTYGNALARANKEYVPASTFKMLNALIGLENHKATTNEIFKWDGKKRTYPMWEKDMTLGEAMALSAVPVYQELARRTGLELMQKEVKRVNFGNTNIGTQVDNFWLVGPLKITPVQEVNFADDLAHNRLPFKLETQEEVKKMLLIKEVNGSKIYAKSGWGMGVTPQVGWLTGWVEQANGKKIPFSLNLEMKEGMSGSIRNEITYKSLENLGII

CC1(C)[C@H](C(=O)O)N2C(=O)C[C@H]2S1(=O)=O
MIC [1]: 4 µg/mL
MIC [2]: > 32 µg/mL
MIC [3]: 32 µg/mL
MIC [4]: > 32 µg/mL
MIC [5]: > 32 µg/mL
MIC [6]: 32 µg/mL
MIC [7]: > 32 µg/mL
MIC [8]: 32 µg/mL
MIC [9]: > 32 µg/mL
MIC [10]: > 32 µg/mL
MIC [11]: > 32 µg/mL
MIC [12]: > 32 µg/mL
MIC [13]: > 32 µg/mL
MIC [14]: 8 µg/mL
MIC [15]: > 32 µg/mL
MIC [16]: 32 µg/mL
